Among the test systems are SK-MEL-5; NCI-H460; TK-10; PC-3; OVCAR-4; SK-MEL-2; SR; SK-OV-3; T47D; OVCAR-3; EKVX; MDA-MB-435; NCI-H226; MOLT-4; SF-268; SNB-75; SW-620; HL-60; HOP-92.
What all share (assay): NCI tumour cell line growth inhibition, 48 h

SMILES strings stand for the structures.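 Step 1: Grow cells in 96-well plates. Step 2: Expose to compound for 48 hours at 5 concentrations. Step 3: Interpolate endpoints linearly; if unreached, use highest concentration. GI50 is the concentration that inhibits growth by half.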 The source made the active and inactive calls. Rule as the data show it: active = GI50 up to about 1.1 µM and inactive = higher. A value given as a limit tells only on which side of the number the result lay.

As to `CCN(CC)CCC(=O)c1ccc(Sc2ccc(F)cc2)cc1`, the GI50 is 17.1 µM (inactive) in the assay with SK-MEL-5; 17.7 µM (inactive) with NCI-H460; 14.4 µM (inactive) in the assay with TK-10; 17.1 µM (inactive) in the assay on PC-3; 20.1 µM (inactive) in the assay with OVCAR-4; 21.1 µM (inactive) in the assay with SK-MEL-2. Besides, the GI50 in the assay on SR is 12.9 µM (inactive); in the assay on SK-OV-3, 23.3 µM (inactive); in the assay on T47D it was 21.2 µM (inactive); in the assay on OVCAR-3, 18.8 µM (inactive); in the assay on EKVX, 19.9 µM (inactive); with MDA-MB-435 it was 14.9 µM (inactive). Besides, the GI50 with NCI-H226 is 16 µM (inactive); in the assay with MOLT-4, 15.1 µM (inactive); in the assay on SF-268, 15.8 µM (inactive); in the assay with SNB-75, 17.5 µM (inactive); in the assay with SW-620, 19.9 µM (inactive); with HL-60 it was 20.1 µM (inactive).
Consider `CC1=C(C(=O)NNC(=O)c2ccccc2)CC(C(=O)NNC(=O)c2ccccc2)=C(C)N1`, for which the GI50 with SK-MEL-5 is > 100 µM (inactive); in the assay on NCI-H460, 92.9 µM (inactive); in the assay on TK-10 it was > 100 µM (inactive); in the assay with PC-3 it was > 100 µM (inactive); in the assay on OVCAR-4 it was > 100 µM (inactive); in the assay with SK-MEL-2 it was > 100 µM (inactive). The GI50 with SK-OV-3, with T47D, in the assay with HOP-92, with OVCAR-3, in the assay with EKVX and in the assay with MDA-MB-435 was > 100 µM (inactive) in each case. Also, the GI50 in the assay on NCI-H226, in the assay on MOLT-4, in the assay on SF-268, in the assay with SW-620 and with HL-60 was > 100 µM (inactive) each time.
For `Clc1ccc(Nc2nnc(CNc3ccc(-c4nnc(Nc5ccc(Cl)cc5)o4)cc3)o2)cc1`, the GI50 was 15.9 µM (inactive) with SK-MEL-5; 14.9 µM (inactive) in the assay on NCI-H460; 14 µM (inactive) in the assay with TK-10; 11.8 µM (inactive) in the assay on PC-3; 17.4 µM (inactive) in the assay with OVCAR-4; 18.3 µM (inactive) with SK-MEL-2. The GI50 in the assay on SK-OV-3 is 22.6 µM (inactive); with T47D, 24.6 µM (inactive); with HOP-92 it was 23.9 µM (inactive); in the assay with OVCAR-3 it was 11.2 µM (inactive); in the assay with EKVX it was 22.3 µM (inactive); in the assay with MDA-MB-435, 12.9 µM (inactive). In addition, the GI50 in the assay on NCI-H226 was 20.9 µM (inactive); with MOLT-4, 6.35 µM (inactive); in the assay with SF-268 it was 21.2 µM (inactive); in the assay with SNB-75, 24.8 µM (inactive); in the assay on SW-620, 20.9 µM (inactive); with HL-60 it was 2.63 µM (inactive).
`CCN(CC)C1Oc2cc3c(cc2C(c2cccc(OC)c2OC)C1C)OCO3` (centres undefined): the GI50 in the assay with SK-MEL-5 is 6.84 µM (inactive); with NCI-H460, 3.63 µM (inactive); in the assay on TK-10, 5.77 µM (inactive); in the assay with PC-3, 4.03 µM (inactive); in the assay on SK-MEL-2, 6.07 µM (inactive); in the assay with SR, 0.729 µM (active). The GI50 with SK-OV-3 is 4.53 µM (inactive); with T47D, 3.42 µM (inactive); with OVCAR-3, 2.7 µM (inactive); in the assay with EKVX, 13.1 µM (inactive); in the assay on MDA-MB-435, 10.1 µM (inactive); in the assay with NCI-H226 it was 2.05 µM (inactive). Also, the GI50 is 4.01 µM (inactive) with MOLT-4; 7.91 µM (inactive) in the assay with SF-268; 6.03 µM (inactive) in the assay on SNB-75; 4.24 µM (inactive) in the assay with SW-620; 1.88 µM (inactive) with HL-60.
In the case of `C1=Nc2sc3c(c2C2=NCCN12)CCCC3`, the GI50 with SK-MEL-5 was 18 µM (inactive); with NCI-H460, 17.5 µM (inactive); with TK-10, 16.6 µM (inactive); in the assay on PC-3, 16.7 µM (inactive); in the assay on OVCAR-4, 20.6 µM (inactive); in the assay with SK-MEL-2, 0.465 µM (active). For the same compound, the GI50 is 21.2 µM (inactive) in the assay with SR; 17.7 µM (inactive) in the assay with T47D; 17.6 µM (inactive) with OVCAR-3; 15.6 µM (inactive) in the assay on EKVX; 18.5 µM (inactive) in the assay with MDA-MB-435; 13.3 µM (inactive) in the assay on NCI-H226. In addition, the GI50 in the assay with MOLT-4 is 13.8 µM (inactive); in the assay with SF-268, 20.6 µM (inactive); in the assay on SNB-75, 18.9 µM (inactive); in the assay with SW-620, 21 µM (inactive); with HL-60, 13.6 µM (inactive).
As for `COc1ccc(CC(C)NCC(O)c2ccc(O)c(NC=O)c2)cc1` (centres undefined), the GI50 in the assay with SK-MEL-5, in the assay with NCI-H460, in the assay with TK-10, in the assay on PC-3, with OVCAR-4 and in the assay on SK-MEL-2 was > 100 µM (inactive) each time. Further, the GI50 in the assay with SR, with SK-OV-3, with T47D, in the assay on OVCAR-3, in the assay on EKVX and in the assay on MDA-MB-435 was > 100 µM (inactive) throughout. Moreover, the GI50 with NCI-H226, in the assay with MOLT-4, with SF-268, in the assay with SNB-75 and in the assay with SW-620 was > 100 µM (inactive) in each case.
With `c1cc2c(cc1[C@@H]1OC[C@@H]3[C@H]1CO[C@H]3c1ccc3c(c1)OCO3)OCO2`, the GI50 was 16 µM (inactive) in the assay on SK-MEL-5; > 100 µM (inactive) with NCI-H460; 30.3 µM (inactive) in the assay with TK-10; 51.4 µM (inactive) with PC-3; > 100 µM (inactive) in the assay on OVCAR-4; > 100 µM (inactive) in the assay with SK-MEL-2. The GI50 with SK-OV-3 is > 100 µM (inactive); in the assay on T47D, 46.3 µM (inactive); in the assay on HOP-92, 69.3 µM (inactive); in the assay with OVCAR-3, 43.5 µM (inactive); with EKVX, 29.7 µM (inactive); in the assay with MDA-MB-435 it was 54.2 µM (inactive). The GI50 in the assay with NCI-H226 is > 100 µM (inactive); with MOLT-4 it was 28.4 µM (inactive); in the assay with SF-268, > 100 µM (inactive); in the assay on SNB-75, > 100 µM (inactive); in the assay on SW-620, 58.3 µM (inactive); in the assay on HL-60, 44 µM (inactive).
Regarding `O=C(c1ccccc1)C1C(C(=O)c2ccccc2)N1Cc1ccccc1` (centres undefined), the GI50 with SK-MEL-5 is 20 µM (inactive); in the assay on NCI-H460, 29.2 µM (inactive); in the assay with TK-10, 46.9 µM (inactive); in the assay with PC-3, 23.4 µM (inactive); in the assay on OVCAR-4 it was 39.9 µM (inactive); with SK-MEL-2, 17.5 µM (inactive). The GI50 was 27.5 µM (inactive) with SK-OV-3; 11.6 µM (inactive) with T47D; 26 µM (inactive) in the assay on HOP-92; 27.8 µM (inactive) in the assay with OVCAR-3; 28.3 µM (inactive) in the assay on EKVX; 21.8 µM (inactive) with MDA-MB-435. Further, the GI50 with NCI-H226 was 32.6 µM (inactive); in the assay with MOLT-4 it was 40.6 µM (inactive); with SF-268, 37.1 µM (inactive); in the assay on SNB-75, 13.9 µM (inactive); in the assay on SW-620, 44.1 µM (inactive).

The values above are taken from ChEMBL document CHEMBL1201862, “PubChem BioAssay data set” (2004).
